Measurements taken from ChEMBL document CHEMBL4346705, “(±)-trans-Dihydronarciclasine and (±)-trans-dihydrolycoricidine analogues modified in their ring A: Evaluation of their anticancer activity and a SAR study” (2019).

Assays:
Type in all cases: functional
OVCAR-4 = experiment: Antiproliferative activity against human OVCAR4 cells assessed as cell viability at 10^-5 M incubated for 48 hrs by sulforhodamine B assay relative to control; details: OVCAR-4, 48 h, read-out: Activity
MDA-MB-435 = experiment: Antiproliferative activity against human MDA-MB-435 cells assessed as cell viability at 10^-5 M incubated for 48 hrs by sulforhodamine B assay relative to control; details: MDA-MB-435, 48 h, read-out: Activity
OVCAR-3 = experiment: Antiproliferative activity against human OVCAR3 cells assessed as cell viability at 10^-5 M incubated for 48 hrs by sulforhodamine B assay relative to control; details: OVCAR-3, 48 h, read-out: Activity
T47D = experiment: Antiproliferative activity against human T47D cells assessed as cell viability at 10^-5 M incubated for 48 hrs by sulforhodamine B assay relative to control; details: read-out: Activity
DU-145 = experiment: Antiproliferative activity against human DU145 cells assessed as cell viability at 10^-5 M incubated for 48 hrs by sulforhodamine B assay relative to control; details: DU-145, 48 h, read-out: Activity
NCI-H322M = experiment: Antiproliferative activity against human NCI-H322M cells assessed as cell viability at 10^-5 M incubated for 48 hrs by sulforhodamine B assay relative to control; details: read-out: Activity
A549 = experiment: Antiproliferative activity against human A549 cells assessed as cell viability at 10^-5 M incubated for 48 hrs by sulforhodamine B assay relative to control; details: A549, 48 h, read-out: Activity
SNB-19 = experiment: Antiproliferative activity against human SNB19 cells assessed as cell viability at 10^-5 M incubated for 48 hrs by sulforhodamine B assay relative to control; details: SNB-19, 48 h, read-out: Activity
SK-OV-3 = experiment: Antiproliferative activity against human SKOV3 cells assessed as cell viability at 10^-5 M incubated for 48 hrs by sulforhodamine B assay relative to control; details: SK-OV-3, 48 h, read-out: Activity
HL-60(TB) = experiment: Antiproliferative activity against human HL-60(TB) cells assessed as cell viability at 10^-5 M incubated for 48 hrs by sulforhodamine B assay relative to control; details: HL-60, 48 h, read-out: Activity
NCI-H522 = experiment: Antiproliferative activity against human NCI-H522 cells assessed as cell viability at 10^-5 M incubated for 48 hrs by sulforhodamine B assay relative to control; details: NCI-H522, 48 h, read-out: Activity
HT-29 = experiment: Antiproliferative activity against human HT-29 cells assessed as cell viability at 10^-5 M incubated for 48 hrs by sulforhodamine B assay relative to control; details: HT-29, 48 h, read-out: Activity
SF-539 = experiment: Antiproliferative activity against human SF539 cells assessed as cell viability at 10^-5 M incubated for 48 hrs by sulforhodamine B assay relative to control; details: SF-539, 48 h, read-out: Activity
MCF7 = experiment: Antiproliferative activity against human MCF7 cells assessed as cell viability at 10^-5 M incubated for 48 hrs by sulforhodamine B assay relative to control; details: MCF7, 48 h, read-out: Activity
KM12 = experiment: Antiproliferative activity against human KM12 cells assessed as cell viability at 10^-5 M incubated for 48 hrs by sulforhodamine B assay relative to control; details: KM12, 48 h, read-out: Activity
MOLT-4 = experiment: Antiproliferative activity against human MOLT4 cells assessed as cell viability at 10^-5 M incubated for 48 hrs by sulforhodamine B assay relative to control; details: MOLT-4, 48 h, read-out: Activity
U-251 = experiment: Antiproliferative activity against human U251 cells assessed as cell viability at 10^-5 M incubated for 48 hrs by sulforhodamine B assay relative to control; details: U-251, 48 h, read-out: Activity
PC-3 = experiment: Antiproliferative activity against human PC3 cells assessed as cell viability at 10^-5 M incubated for 48 hrs by sulforhodamine B assay relative to control; details: PC-3, 48 h, read-out: Activity
HOP-92 = experiment: Antiproliferative activity against human HOP92 cells assessed as cell viability at 10^-5 M incubated for 48 hrs by sulforhodamine B assay relative to control; details: HOP-92, 48 h, read-out: Activity
UACC-62 = experiment: Antiproliferative activity against human UACC62 cells assessed as cell viability at 10^-5 M incubated for 48 hrs by sulforhodamine B assay relative to control; details: UACC-62, 48 h, read-out: Activity
TK-10 = experiment: Antiproliferative activity against human TK10 cells assessed as cell viability at 10^-5 M incubated for 48 hrs by sulforhodamine B assay relative to control; details: TK-10, 48 h, read-out: Activity
SN12C = experiment: Antiproliferative activity against human SN12C cells assessed as cell viability at 10^-5 M incubated for 48 hrs by sulforhodamine B assay relative to control; details: read-out: Activity
ACHN = experiment: Antiproliferative activity against human ACHN cells assessed as cell viability at 10^-5 M incubated for 48 hrs by sulforhodamine B assay relative to control; details: read-out: Activity
SW-620 = experiment: Antiproliferative activity against human SW620 cells assessed as cell viability at 10^-5 M incubated for 48 hrs by sulforhodamine B assay relative to control; details: SW-620, 48 h, read-out: Activity
HCT-15 = experiment: Antiproliferative activity against human HCT15 cells assessed as cell viability at 10^-5 M incubated for 48 hrs by sulforhodamine B assay relative to control; details: HCT-15, 48 h, read-out: Activity
UO-31 = experiment: Antiproliferative activity against human UO31 cells assessed as cell viability at 10^-5 M incubated for 48 hrs by sulforhodamine B assay relative to control; details: UO-31, 48 h, read-out: Activity
SF-268 = experiment: Antiproliferative activity against human SF268 cells assessed as cell viability at 10^-5 M incubated for 48 hrs by sulforhodamine B assay relative to control; details: SF-268, 48 h, read-out: Activity
M14 = experiment: Antiproliferative activity against human M14 cells assessed as cell viability at 10^-5 M incubated for 48 hrs by sulforhodamine B assay relative to control; details: M14, 48 h, read-out: Activity
NCI-H23 = experiment: Antiproliferative activity against human NCI-H23 cells assessed as cell viability at 10^-5 M incubated for 48 hrs by sulforhodamine B assay relative to control; details: NCI-H23, 48 h, read-out: Activity
OVCAR-5 = experiment: Antiproliferative activity against human OVCAR5 cells assessed as cell viability at 10^-5 M incubated for 48 hrs by sulforhodamine B assay relative to control; details: OVCAR-5, 48 h, read-out: Activity
SNB-75 = experiment: Antiproliferative activity against human SNB75 cells assessed as cell viability at 10^-5 M incubated for 48 hrs by sulforhodamine B assay relative to control; details: SNB-75, 48 h, read-out: Activity
LOX IMVI = experiment: Antiproliferative activity against human LOXIMVI cells assessed as cell viability at 10^-5 M incubated for 48 hrs by sulforhodamine B assay relative to control; details: read-out: Activity

| SMILES | viability at 10 µM (OVCAR-4) [%] | viability at 10 µM (MDA-MB-435) [%] | viability at 10 µM (OVCAR-3) [%] | viability at 10 µM (T47D) [%] | viability at 10 µM (DU-145) [%] | viability at 10 µM (NCI-H322M) [%] | viability at 10 µM (A549) [%] | viability at 10 µM (SNB-19) [%] | viability at 10 µM (SK-OV-3) [%] | viability at 10 µM (HL-60(TB)) [%] | viability at 10 µM (NCI-H522) [%] | viability at 10 µM (HT-29) [%] | viability at 10 µM (SF-539) [%] | viability at 10 µM (MCF7) [%] | viability at 10 µM (KM12) [%] | viability at 10 µM (MOLT-4) [%] | viability at 10 µM (U-251) [%] | viability at 10 µM (PC-3) [%] | viability at 10 µM (HOP-92) [%] | viability at 10 µM (UACC-62) [%] | also measured |
| --- | --- | --- | --- | --- | --- | --- | --- | --- | --- | --- | --- | --- | --- | --- | --- | --- | --- | --- | --- | --- | --- |
| CCOc1cc2c(cc1OCC)C1CC(O)C(O)C(O)C1NC2=O (racemic) | 107 | 109 | 107 | 90.2 | 106 | 95.2 | 101 | 105 | 95.9 | 94.5 | 89.5 | 106 | 98 | 94.4 | 104 | 96.5 | 106 | 92.8 | 102 | 96.1 | viability at 10 µM (TK-10): 118%; viability at 10 µM (SN12C): 100%; viability at 10 µM (ACHN): 101%; viability at 10 µM (SW-620): 99.4%; viability at 10 µM (HCT-15): 101%; viability at 10 µM (UO-31): 76.4%; viability at 10 µM (SF-268): 97.9%; viability at 10 µM (M14): 99.1%; viability at 10 µM (NCI-H23): 96.1%; viability at 10 µM (OVCAR-5): 101%; viability at 10 µM (SNB-75): 98.9%; viability at 10 µM (LOX IMVI): 92.8% |
| COc1cc2c(c(OC)c1OC)C(=O)NC1C2CC(O)C(O)C1O (racemic) | 107 | 110 | 112 | 100 | 110 | 104 | 98.4 | 99 | 99.9 | 99.3 | 97.7 | 107 | 100 | 96.1 | 108 | 104 | 98.9 | 96.5 | 91.4 | 94.1 | viability at 10 µM (TK-10): 98.5%; viability at 10 µM (SN12C): 104%; viability at 10 µM (ACHN): 99.7%; viability at 10 µM (SW-620): 109%; viability at 10 µM (HCT-15): 104%; viability at 10 µM (UO-31): 87.1%; viability at 10 µM (SF-268): 103%; viability at 10 µM (M14): 98.5%; viability at 10 µM (NCI-H23): 106%; viability at 10 µM (OVCAR-5): 106%; viability at 10 µM (SNB-75): 102%; viability at 10 µM (LOX IMVI): 97.7% |
| CCOc1cc2c(c(OC)c1OCC)C(=O)NC1C2CC(O)C(O)C1O (racemic) | 105 | 107 | 102 | 96.3 | 106 | 106 | 84.3 | 97.7 | 103 | 86.8 | 93.3 | 98.3 | 102 | 97.6 | 103 | 99.3 | 95.4 | 96.9 | 86.4 | 97.3 | viability at 10 µM (TK-10): 100%; viability at 10 µM (SN12C): 104%; viability at 10 µM (ACHN): 104%; viability at 10 µM (SW-620): 109%; viability at 10 µM (HCT-15): 99.5%; viability at 10 µM (UO-31): 96.1%; viability at 10 µM (SF-268): 95.4%; viability at 10 µM (M14): 107%; viability at 10 µM (NCI-H23): 95.8%; viability at 10 µM (OVCAR-5): 109%; viability at 10 µM (SNB-75): 98.8%; viability at 10 µM (LOX IMVI): 98.4% |
